Data published in patent publication US8980914B2, “Therapeutic agent for chronic obstructive pulmonary disease and method for treatment for chronic obstructive pulmonary disease with the same” (Mariposa Health Limited, priority 2003, dated 2015).

Legend:
[1] = tested on: airway hyper-responsiveness induced by peroxynitrite; assay: Airway hyper-responsiveness model induced by exposure of peroxynitrite in guinea pigs (lung resistance after histamine); assay type: in vivo; settings: 30 mg/kg orally one hour before peroxynitrite, histamine 32 μg/kg i.v. on 5-day, control group 759, non-stimulation group 382
Description: This test was performed so as to investigate the pharmacological effect of the 7-aminoquinolinone derivative of the present invention on an airway hyper-responsiveness model induced by exposure of peroxynitrite in guinea pigs. The test procedure will now be described.
Guinea pigs were fasted for 18 hours or more. The animals were administrated the test substance (30 mg/kg) orally one hour before exposure of peroxynitrite and the neck was dissected under ether anesthesia, and then the trachea was exposed. 0.1 mL of 1 mmol/L peroxynitrite was administered intratracheally into pulmonary side by pushing with air and, after the administration, the incision was sutured and disinfected.
The measurement of airway hyper-responsiveness was performed on 5-day, taking the day of model preparation 0-day. Guinea pigs were fasted for 18 hours or more. The measurement of lung resistance; (RLung) was performed according to the method of R. E. Giles et al. (R. E. Giles, M. P. Finkel and J. Mazurowski: Use of an Analog On-Line Computer for the Evaluation of Pulmonary Resistance and Dynamic Compliance in the Anesthetized Dog. Arch. Int. Pharmacodyn. 194, 213-222 (1971)). That is, the animals were anesthetized with Nembutal (Trade name: 40 mg/kg, i.v., sodium pentobarbital) and subjected to cannulation into esophagus, trachea and jugular veins (for administration of histamine). The esophagus and trachea cannulas were connected to an artificial respirator (ventilation volume: 6 mL/kg, ventilation frequency: 60 times/min, SN-480-7) and the Rlung was measured after intravenous administration (dose of 0.1 mL/kg) of physiological saline solution and histamine (32 μg/kg) using a total plethysmograph system via flow sensor, connected to Validyne DF45F (for flow rate) and DP45P (for pressure). RLung before administration was determined by averaging values of any 3 out of 20 breaths, RLung after administration of physiological saline solution was determined by averaging values of any 3 out of 5 breaths, and RLung after administration of histamine was determined by averaging values of the following 3 breaths; 1) showing the maximum lung resistance, 2) taken just before and 3) taken just after the one with the maximum lung resistance, out less than 20 breaths. (The extreme values in RLung that occurred when animal moved during the measurement were excluded from the calculations.)
The percentage of increase in lung resistance was calculated by the following equation. Increase in lung resistance (%)=([RLung after administration of histamine]−[RLung before administration])/[RLung before administration]×100

[2] = Peroxynitrite scavenging activity (oxidation of dihydrorhodamine 123); assay type: biochemical; settings: oxidation of dihydrorhodamine 123 by peroxynitrite, phosphate buffer pH 7.4; read-out: 50% Inhibitory concentration on oxidation (IC50)
Description: This test was performed by estimating the antioxidative effect of the test substance using peroxynitrite quantitative method as a test system with dihydrorhodamine 123 so as to confirm the ability of the 7-aminoquinolinone derivatives of the present invention to scavenge peroxynitrite. This is a method described in NITRIC OXIDE: Biology and Chemistry Vol. 1, 145-157, 1997.
The test substance was weighted in an amount of approximately 10 mg, dissolved in a 10% Tween 80 solution and adjusted to 5×10^−3 mol/L. Then, the solution was diluted with 0.1 mol/L phosphate buffer (pH=7.4) to 5×10^−4 mol/L. The diluent was further diluted stepwise with a phosphate buffer containing 1% Tween 80 to obtain substance solution. The preparation was conducted before use. The final concentration of the test substance was adjusted to 3×10^−6, 1×10^−6, 3×10^−7, 1×10^−7, and 3×10^−8 mol/L, respectively.
To 20 μL of peroxynitrite solution (manufactured by DOJINDO LABORATORIES), 1980 μL of 0.1 mol/L sodium hydroxide was added and the mixture was diluted 100 times. The absorbance of the maximum absorption wavelength near 300 nm was measured using a UV-visible spectrophotometer and the concentration was calculated according to the following equation. Concentration(mmol/L)=(absorbance/1670)×100×1000
Based on the concentration calculated in the above section, dilution with a 0.1 mol/L sodium hydroxide solution was conducted and adjusted to 10 mmol/L. 990 μL of a 0.1 mol/L sodium hydroxide solution was taken into a 1.5 mL-Eppen tube. To the Eppen tube, 10 μL of a solution adjusted to 10 mmol/L was added to prepare a 100 μmol/L solution.
Dihydrorhodamine 123 was dissolved into 1.155 mL of dimethylsulfoxide, and adjusted to the concentration of 25 mmol/L. This solution was dispensed into 20 μL aliquots and then the aliquots were stored in a biomedical freezer (about −20° C.) and used as a stock solution.
To 490 μL of 0.02% Tween 80 containing 0.1 mol/L phosphate buffer, 10 μL of 25 mmol/L of a thawed dihydrorhodamine 123 stock solution was added to make 500 μmol/L. The prepared solution was diluted with 0.1 mol/L phosphate buffer (pH=7.4) 1000 times to prepare 500 nmol/L of a dihydrorhodamine 123 solution.
(1) To a 3.5 mL brown vial containing a stirring bar, 1470 μL of a 500 nmol/L dihydrorhodamine 123 solution and then 15 μL of the test substance solution was added. For the blank and control groups, 15 μL of 0.1 mol/L phosphate buffer containing 1% Tween 80, as a solvent for the test substance solution, was added. After the addition, the mixture was stirred with a stirrer for 30 minutes.
15 μL of a 100 μmol/L peroxynitrite solution was added while stirring. For the blank group, 15 μL of a 0.1 mol/L sodium hydroxide solution was added. After stirring for 15 minutes, fluorescence intensity was measured.
Fluorescence intensity of the reaction solution was measured using a spectrophotofluorometer under the following measuring conditions: excitation wavelength, 500 nm; emission wavelength, 536 nm; measuring times, one; response, 1 sec; photomultiplier tube voltage, Low; band width at excitation side, 10 nm; bandwidth at emission side, 10 nm.
The oxidation rate of dihydrorhodamine 123 when adding the test substance was calculated, taking the oxidation rate of dihydrorhodamine 123 for control as 100, according to the following equation: Oxidation rate (%) of dihydrorhodamine 123=(measured value for each group−measured value for blank)/(measured for control−measured value for blank)×100 Calculation of Oxidation Inhibition Concentration (IC50)
50% oxidation concentration, that is 50% oxidation inhibition concentration (IC50) was calculated by giving a straight line from two points surrounding 50% oxidation rate.

[3] = tested on: airway hyper-responsiveness induced by ozone; assay: Airway hyper-responsiveness model induced by inhalation of ozone in guinea pigs (lung resistance after methacholine); assay type: in vivo; settings: test substance 30 mg/kg one hour before ozone inhalation, RLung after methacholine inhalation 5 hours after end of ozone exposure
Description: This test was performed so as to evaluate the pharmacological effect of the 7-aminoquinolinone derivatives of the present invention in an airway hyper-responsiveness model induced by inhalation of ozone in guinea pigs. The test procedure will now be described.
Guinea pigs were fasted for 18 hours or more. The animals were administered the test substance (30 mg/kg) and theophylline (100 mg/kg) one hour before ozone inhalation. For the non-stimulation group and the vehicle control group, vehicle (5 mL/kg) was administered similarly.
The animals were put into an acryl-made chamber (29×19×25 cm), subjected to induction of ozone generated by an ozonizer (EUV3-XU; EBARA JITSUGYO CO, LTD.) and exposed for 2 hours. The ozone concentration in the chamber was approximately 3 ppm. It was confirmed every 30 minutes that this concentration was maintained during exposure by an ozone monitor (EG-5000; EBARA JITSUGYO CO, LTD.) (measured value: 2.53 to 3.40 ppm). For the non-stimulation group, the animals were exposed to a mixed gas (oxygen: 95%, carbonic acid gas: 5%) similarly. The ozone concentration at that time was also confirmed similarly (acceptable concentration: 0.01 ppm or less, measured value: 0.00 to 0.01 ppm).
The measurement of airway hyper-responsiveness was performed 5 hours after the end of ozone exposure. The measurement of lung resistance (RLung) was performed according to the method of R. E. Giles et al. in the same manner as in Example 2. That is, the animals were anesthetized with Nembutal (Trade name: 50 mg/kg, i.p., sodium pentobarbital) and subjected to cannulation into esophagus and trachea. The esophagus and trachea cannulas were connected to a respirator (ventilation volume: 6 mL/kg, ventilation frequency: 60 times/min, SN-480-7) and the RLung after inhalation of methacholine (100 μg/mL, for 1.5 minutes) was measured by the respiratory function analyzer (PULMOS-II; M.I.P.S) through a flow sensor (connected to Validyle DF45F (for flow rate) and DP45P (for pressure)). The inhalation of methacholine was performed with an ultrasonic nebuliser (NE-U17; Omron Matsuzaka) connected to the respirator under artificial respiration.
Used RLung represents 10 breaths having a stable value in a range from 1 to 30 breaths after initiation of each measurement for both before inhalation and during methacholine inhalation. The average of the RLung was calculated. The extreme values in RLung that occurred when animal moved during the measurement were excluded from the calculations.
The percentage of increase of RLung was calculated by the following equation. Increase in lung resistance (%)=([RLung after inhalation of methacholine]−[RLung before administration])/[RLung before administration]×100

SMILES	Increase in lung resistance (%) [1] [%]	IC50 [2] [nM]	Increase in lung resistance (%) [3] [%]
CCCCCCOc1c(O)c2ccc(NC(=O)C=Cc3cc(OC)c(O)c(OC)c3)cc2n(C)c1=O [Compound 549]	423	800	28
CCCCCCCCOc1c(O)c2ccc(NC(=O)C=Cc3cc(OC)c(O)c(OC)c3)cc2n(C)c1=O [Compound 551]	416	710	22
COc1cc(C=CC(=O)Nc2ccc3c(O)c(OCC=C(C)CCC=C(C)C)c(=O)n(C)c3c2)cc(OC)c1O [Compound 553]	417	980	28
CCCCCCOc1c(O)c(=O)n(C)c2cc(NC(=O)C=Cc3cc(OC)c(O)c(OC)c3)ccc12 [Compound 556]	426	890	25
CCCCCCOc1c(O)c2ccc(NC(=O)C=Cc3ccc(O)c(OC)c3)cc2n(C)c1=O [Compound 581]	430	760	30
